Consider 15 molecules from patent publication US20170121268A1, “PPAR MODULATORS” (THE GOVERNING COUNCIL OF THE UNIVERSITY OF TORONTO, priority 2014, published 2017).

A word on the EC50: it is the concentration giving half of the maximal effect. As a reminder, the melting point is the temperature, or range, at which the solid turns liquid.

For data set [1], the target named is T1, GAL4-hPPARγ (Homo sapiens, UniProt P37231).
T1 sequence (P37231 238-505 limits assumed): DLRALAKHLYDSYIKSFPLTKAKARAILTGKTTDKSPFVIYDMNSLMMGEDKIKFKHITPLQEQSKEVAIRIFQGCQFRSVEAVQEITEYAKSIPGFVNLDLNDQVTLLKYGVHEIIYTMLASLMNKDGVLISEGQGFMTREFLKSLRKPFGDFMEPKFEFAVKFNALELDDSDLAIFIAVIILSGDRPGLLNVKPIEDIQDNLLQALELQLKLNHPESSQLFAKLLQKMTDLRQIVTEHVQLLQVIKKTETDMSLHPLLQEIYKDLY
Briefly: GAL4-hPPARγ-UAS-luciferase reporter assay in transiently transfected HEK293 cells. The data set is classed as cell-based. Conditions: for PPARγ agonist profile compared to rosiglitazone control / EC50: dose-response, HEK293 cells; for EC50: read-out: EC50 for PPARγ; for PPARγ reporter response relative to vehicle: dosed at 50 μM. The procedure: (§1) HEK293 cells were maintained in Dulbecco's modified Eagle's medium supplemented with 10% fetal bovine serum. Cell transfection was performed in media containing 10% charcoal-stripped fetal bovine serum using calcium phosphate in 96-well plates. The total amount of plasmid DNA (150 ng/well) included 50 ng UAS-Iuc reporter, 20 ng β-galactosidase, 15 ng nuclear receptor (GAL4-hPPARα and GAL4-hPPARγ) and pGEM filler plasmid. Ligands were added at 6 to 8 hours post transfection. Cells harvested 14 to 16 hours later were assayed for luciferase and β-galactosidase activity.
On the technique in general: In a reporter assay the amount or activity of a reporter protein is the signal.

The test system of data set [2] is 3T3-L1 cells. Put plainly: Oil Red O staining of 3T3-L1 adipocytes after 11 days of differentiation. Conditions: 25 μM. The data set is classed as cell-based. The procedure: (§2) 3T3-L1 cells were maintained in Dulbecco's modified Eagle's medium supplemented with 10% fetal calf serum. Adipocyte differentiation was induced in two-days postconfluent cells by treating the cells with 100 μg/ml isobutylmethylxanthine, 1 μM dexamethasone, and 5 μg/ml insulin with 10% FBS in DMEM (Day 0). Rosiglitazone and LDT ligands were added at the start of differentiation. Two days later, cells were switched to the medium containing 5 μg/ml insulin with 10% FBS. After an additional 72 hrs, cells were switched to maintenance media containing 10% FBS in DMEM. Thereafter, the media was changed every 2 days. Cells were harvested on day 11 for RNA expression and Oil Red O was used to estimate lipid accumulation.
Following 11 days of differentiation, cells were washed with PBS twice and fixed in 10% neutral buffered formalin (Sigma) for 1 h at room temperature, followed by two ddH2O and two washes with 60% isopropanol. Cells were then stained with 0.6% (w/v) Oil Red O solution (60% isopropanol, 40% water) for 10 min at room temperature, followed by five washes with ddH2O to remove unbound dye and images were taken with Leica M205 FA microscope.

In data set [3] the test system is PPARγ target genes in 3T3-L1 pre-adipocytes. Put plainly: 3T3-L1 differentiation assay, expression of PPARγ target genes (QPCR). Format: cell-based. Conditions: 25 μM, day 11. The procedure:
as §2
(§3) Total RNA was extracted from cells using RNA STAT-60 (Tel-Test Inc.), followed by DNase I treatment (RNase-free; Roche), and reverse transcribed into cDNA with random hexamers using the High Capacity Reverse Transcription System (ABI; Applied Biosystems). Real-time quantitative PCR (QPCR) analysis was performed on an ABI 7900 in 384-well plates using 2×SYBR Green PCR Master Mix (ABI). Relative mRNA levels were calculated using the comparative Ct method normalized to cyclophilin mRNA.

Data set [4] concerns the target T2, GAL4-hPPARα (Homo sapiens, UniProt Q07869).
T2 sequence (Q07869 200-468 limits assumed): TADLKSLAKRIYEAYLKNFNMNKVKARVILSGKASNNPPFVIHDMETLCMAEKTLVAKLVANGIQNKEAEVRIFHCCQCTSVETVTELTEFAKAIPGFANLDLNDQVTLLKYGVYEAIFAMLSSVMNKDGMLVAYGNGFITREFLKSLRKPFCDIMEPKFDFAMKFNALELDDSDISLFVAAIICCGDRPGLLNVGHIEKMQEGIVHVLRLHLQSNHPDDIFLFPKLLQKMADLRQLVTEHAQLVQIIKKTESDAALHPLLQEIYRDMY
Briefly: GAL4-hPPARα-UAS-luciferase reporter assay in transiently transfected HEK293 cells. The data set is classed as cell-based. As to conditions: for EC50 / PPARα agonist profile compared to the full agonist GW7647: dose-response, HEK293 cells; for EC50: read-out: EC50 for PPARα; for PPARα reporter response relative to vehicle: dosed at 50 μM. The procedure:
as §1

Data set [5] relates to PPARα target genes in primary mouse hepatocytes. Put plainly: Primary hepatocyte assay, expression of PPARα target genes (QPCR). Format: cell-based. Conditions: 50 μM, 24 hrs. The procedure:
Mouse primary hepatocytes were isolated by collagenase perfusion as previously described (Patel et al. 2011). Cells were plated onto type I collagen-coated plates at 0.5×10^6 cells per well for 2 hours in attachment media (William's E Media, 10% charcoal stripped FBS, 1× penicillin/streptomycin, and 10 nM insulin), and then switched to overnight media (M199 Media, 5% charcoal stripped FBS, 1× penicillin/streptomycin, and 1 nM insulin). Ligand treatments were carried out on the following day in M199 media without FBS. Cells were harvested 24 hrs later for RNA extraction.
as §3

For data set [6] the following is noted: women on drug; cited from earlier work.

Structures are written as SMILES.

Turning to `CCCCCCCCCCCCCCCc1cccc(O)c1C(=O)O` [LDT11], in data set [1], the “PPARγ agonist profile compared to rosiglitazone control” value was “full agonist profile” and the EC50 was determined as 12 µM. Further, the “adipocyte differentiation by Oil red O staining” value (from here on “adipocyte differentiation”) in data set [2] is “less adipogenic compared to Rosi”. In data set [3], the GLUT4 expression result is “augmented” and the adiponectin expression entry was “significantly increased”. Also, the concentration giving a half-maximal response (EC50) in data set [4] was determined as 9 µM.

As for `CCCCCCCCCCCCCCCc1cccc(OC(C)=O)c1C(=O)O` [LDT13], in data set [1], the “PPARγ agonist profile compared to rosiglitazone control” value is recorded as “partial PPARγ agonists” and the EC50 amounted to 12 µM. The GLUT4 expression entry in data set [3] is recorded as “augmented”. For the same molecule, the EC50 in data set [4] came to 7 µM.

In the case of `CCCCCCCCCCCCCCCc1cccc(OCC(=O)OCC)c1` [LDT15], in data set [1], the “PPARγ agonist profile compared to rosiglitazone control” value was “partial PPARγ agonists” and the EC50 is 42 µM. For the same molecule, in data set [5], the “CD36 expression (hepatocytes)” value was “significantly increased”, the FABP1 expression result is recorded as “significantly increased”, the Fgf21 expression result was “upregulation” and the PDK4 expression entry is reported as “upregulated”. The “adipocyte differentiation” value in data set [2] was “less adipogenic compared to Rosi”. In addition, in data set [3], the GLUT4 expression result was “augmented”, the UCP2 expression result is “upregulated” and the adiponectin expression result was “induced to a similar degree as Rosi”. Further, the EC50 in data set [4] was 3.5 µM.

In the case of `CCCCCCCCCCCCCCCc1cccc(OCC(=O)O)c1` [LDT16], in data set [1], the “PPARγ agonist profile compared to rosiglitazone control” value was “full agonist profile” and the 50% effective concentration (EC50) turned out to be 3.6 µM. In data set [4], the 50% effective concentration (EC50) was found to be 0.9 µM.

For the molecule `CCCCCCCCCCCCCCCc1cccc(OC)c1C(=O)O` [LDT30], the UCP2 expression result in data set [3] is “upregulated”. In addition, the EC50 in data set [4] turned out to be 32 µM.

On to `CCOC(=O)COc1cccc(CCCCCCCCO)c1` [LDT296, Ethyl 2-(3-(8-hydroxyoctyl)phenoxy)acetate], for which, in data set [1], the “PPARγ agonist profile compared to rosiglitazone control” value was “less potent, full agonist profile”. Further, the “PPARα agonist profile compared to the full agonist GW7647” value in data set [4] was “less potent partial PPARα agonists”.

As to `CCOC(=O)COc1cccc(CCCCCCCC(=O)O)c1` [LDT298, 8-(3-(2-Ethoxy-2-oxoethoxy)phenyl)octanoic acid], in data set [1] (FIG. 5B, dose not given), the “increase in reporter activity in the PPARγ activation assay” value is “comparable luciferase activation”. The “increase in activity as compared to Veh in the PPARα activation assay” value in data set [4] (FIG. 5A, dose not given) is “comparable luciferase activation”. Besides, in data set [4], the “PPARα agonist profile compared to the full agonist GW7647” value is given as “less potent partial PPARα agonists” and the 50% effective concentration (EC50) is 1.3 µM.

As for `CCCCCCCCCCCCCCCc1cccc(OC(C)(C)C(=O)OCC)c1` [LDT408], the “PPARγ agonist profile compared to rosiglitazone control” value in data set [1] is recorded as “partial PPARγ agonists”. In addition, in data set [5], the “CD36 expression (hepatocytes)” value is “significantly increased”, the FABP1 expression entry is recorded as “significantly increased” and the PDK4 expression result is given as “upregulated”. Further, the “adipocyte differentiation” value in data set [2] is “less adipogenic compared to Rosi”. Further, in data set [3], the GLUT4 expression result is on record as “augmented”, the UCP2 expression entry is “upregulated” and the adiponectin expression entry is “significantly increased”.

Take `CCCCCCCCCCCCCCCc1cccc(OC(C)(C)C(=O)O)c1` [LDT409]: the “adipocyte differentiation” value in data set [2] is “comparable to Rosi”. Also, in data set [3], the GLUT4 expression entry is on record as “augmented”, the UCP2 expression result is “upregulated” and the adiponectin expression result was “induced to a similar degree as Rosi”. Moreover, the EC50 in data set [4] worked out at 0.2 µM.

As to `CC(C)(Oc1cccc(CCCCCCCCO)c1)C(=O)O` [LDT477, 2-(3-(8-hydroxyoctyl)phenoxy)-2-methylpropanoic acid], in data set [1], the “PPARγ agonist profile compared to rosiglitazone control” value was “full agonist profile”, the concentration giving a half-maximal response (EC50) was 14 µM and the “PPARγ reporter response relative to vehicle” value was “most active”. The “adipocyte differentiation” value in data set [2] was “able to induce adipocyte differentiation”. The GLUT4 expression result in data set [3] is “upregulated”. In data set [4], the “PPARα agonist profile compared to the full agonist GW7647” value is listed as “less potent partial PPARα agonists”, the EC50 is 20 µM and the “PPARα reporter response relative to vehicle” value is listed as “most active”.

On to `CCOC(=O)C(C)(C)Oc1cccc(CCCCCCCC(=O)O)c1` [LDT478, 8-(3-((1-ethoxy-2-methyl-1-oxopropan-2-yl)oxy)phenil)octanoic acid], for which, in data set [1], the “PPARγ agonist profile compared to rosiglitazone control” value is on record as “full agonist profile” and the EC50 stood at 14 µM. In data set [4], the “PPARα agonist profile compared to the full agonist GW7647” value was “less potent partial PPARα agonists” and the EC50 was found to be 37 µM.

Regarding `CCOC(=O)CCCCCCCc1cccc(OCC(=O)OCC)c1` [LDT480, Ethyl 8-(3-(2-ethoxy-2-oxoethoxy)phenyl)octanoate], in data set [1], the “PPARγ agonist profile compared to rosiglitazone control” value is “full agonist profile”, the half-maximal effective concentration (EC50) amounted to 21 µM and the “PPARγ reporter response relative to vehicle” value is given as “most active”. Also, in data set [4], the “PPARα agonist profile compared to the full agonist GW7647” value is reported as “less potent partial PPARα agonists”, the concentration giving a half-maximal response (EC50) stood at 3.9 µM and the “PPARα reporter response relative to vehicle” value is “most active”.

`CCOC(=O)CCCCCCCc1cccc(OC(C)(C)C(=O)OCC)c1` [LDT481, Ethyl 8-(3-((1-ethoxy-2-methyl-1-oxopropan-2-yl)oxy)phenyl)octanoate] displayed a melting point of 39 to 42 °C. The “adipocyte differentiation” value in data set [2] is “able to induce adipocyte differentiation”. In addition, the GLUT4 expression result in data set [3] is “upregulated”.

In the case of `CCc1ccc(CCOc2ccc(CC3SC(=O)NC3=O)cc2)nc1` (centres unmarked) [pioglitazone], in data set [6], the “rate of distal bone fractures” value is “two-fold increased rate”.

For `CN(CCOc1ccc(CC2SC(=O)NC2=O)cc1)c1ccccn1` (centres unmarked) [rosiglitazone], the “rate of distal bone fractures” value in data set [6] is “two-fold increased rate”.
